Laboratory results published in patent US20250101487A1, “SELF-DILUTING MICROFLUIDIC DEVICE FOR RAPID ANTIMICROBIAL SUSCEPTIBILITY TESTS” (The University of Hong Kong, priority 2023, published 2025).
Converted amounts (≈) assume the structure as drawn. Where two headings read alike, the source gives them in different places.

How the values were obtained:
[1] = system: S. capitis; details: cited from earlier work
[2] = system: S. aureus; details: cited from earlier work
[3] = system: S. capitis; assay: SDFAST antimicrobial susceptibility test (WST-8), clinical Staphylococcus strains; type: cell-based
Description: (§1) SDFAST (Self Dilution for Faster Antimicrobial Susceptibility Testing) involved a relatively simple mechanism with three phases: loading, droplet formation, and mixing (FIG. 3A). In the loading phase, a bacteria sample with a colorimetric indicator (CCK-8, cell counting kit-8) was injected into the constant-volume channels, while the antibiotic solution is injected into the varied-volume channels. In the droplet formation phase, the upper chip was slipped, forming droplets. In the mixing phase, the bacteria sample was mixed with the antibiotic solution. […] The well before the abrupt color change represented the minimum inhibitory concentration (MIC) of the bacteria with the antibiotic.
(§2) The solutions were injected using a micropipette with 0.1-20 μL tips. For lines with constant volume, 20 μL solution was required to fill up one entire line, while for lines with varied volumes, 10 μL solution was required. The excess solution was expelled from the hole adjacent to the end side of each line and could be wiped with KimWipes. After filling the wells, the chips were slid so that the lower line aligned and overlapped with the upper line, allowing the solutions to mix. Subsequently, the chips were placed inside a Petri dish containing FC-40, and the dish was sealed with parafilm. The dish was then incubated at 37° C. for 6 hours before color analysis using ImageJ.
(§3) They were obtained from the Department of Microbiology, Queen Mary Hospital, Hong Kong (Patient samples). Vancomycin hydrochloride solution (100 mg/mL in DMSO, Sigma-Aldrich) was diluted with DI water to desired concentrations for each strain. The results were compared to those obtained by E-test from the Department of Microbiology.

[4] = system: S. caprae; assay: as above; type: cell-based
Description: as §1, §2, §3

[5] = system: S. aureus; assay: as above; type: cell-based
Description: as §1, §2, §3

[6] = system: S. haemolyticus; assay: as above; type: cell-based; details: S. haemolyticus 901622-2
Description: as §1, §2, §3

[7] = system: S. caprae; details: cited from earlier work
[8] = system: S. haemolyticus; details: S. haemolyticus 901622-2; cited from earlier work
[9] = system: K. pneumoniae; assay: SDFAST antimicrobial susceptibility test (WST-8 colorimetric); type: cell-based; details: Klebsiella pneumoniae, WST-8, 37° C., 6 hours
Description: as §1, §2
The bacteria were cultured on an agar plate and incubated in Mueller-Hinton Broth (MHB, Sigma-Aldrich) at 37° C. overnight. The culture solution was then diluted 1000 times with MHB and mixed with 5% WST-8 indicator (Beyotime). […]
(§4) In the present invention, the SDFAST was operated with the water-soluble tetrazolium salt-8 (WST-8) assay, in which four prevalent bacteria, Acinetobacter baumannii (A. baumannii), Escherichia coli (E. coli), Klebsiella pneumoniae (K. pneumoniae) and clinical samples containing Staphylococcus species were tested under various antibiotics. […] After the identification, the MIC value was calculated based on dilution rates.

[10] = system: A. baumannii; assay: Broth microdilution; type: cell-based; details: Acinetobacter baumannii
Description: (§5) Currently, AST is mostly commonly conducted by the broth microdilution method^3,4, in which the antibiotic solution of the desired concentration is prepared, injected into a microwell, and diluted serially from well to well. Afterward, an equal volume of bacteria solution is introduced to every microwell with antibiotics of varied concentrations, and the well-plate is incubated overnight. In the end, MIC is determined by observing and analyzing the turbidity of each well, and the well with the lowest concentration of antibiotic showing no turbidity represents the MIC^5. […] Another common yet less complex method is disc diffusion^7. In this technique, bacteria are initially cultured on Mueller-Hinton agar. Subsequently, antimicrobial discs are positioned on the agar plate, and the plate is left to incubate overnight. The diameters of inhibition zones, the regions where bacteria are being killed, are then measured, and these values are compared to reference standards to ascertain susceptibility. This method is used for qualitative determination of bacterial susceptibility, in which the bacteria are determined to be “resistant”, “intermediate,” or “susceptible” from the results. Despite its widespread use, this method has several drawbacks. […] Additionally, it is time-consuming, requiring 16 to 24 hours to produce results, and must be conducted in a laboratory^8,9. Consequently, an alternative approach that is portable, user-friendly, and time-efficient needs to be developed for rapid MIC determination.

[11] = system: K. pneumoniae; assay: Broth microdilution; type: cell-based; details: Klebsiella pneumoniae
Description: as §5

[12] = system: E. coli; assay: Broth microdilution; type: cell-based; details: Escherichia coli
Description: as §5

[13] = system: A. baumannii; assay: SDFAST antimicrobial susceptibility test (WST-8 colorimetric); type: cell-based; details: Acinetobacter baumannii, WST-8, 37° C., 6 hours
Description: as §1, §2
(§6) The bacteria were cultured on an agar plate and incubated in Mueller-Hinton Broth (MHB, Sigma-Aldrich) at 37° C. overnight. The culture solution was then diluted 1000 times with MHB and mixed with 5% WST-8 indicator (Beyotime). The antibiotic solutions were prepared by dissolving the desired amount of antibiotics (solid or liquid) into DI water, and the solutions were diluted by DI water according to the desired concentrations to be tested.
as §4, with “The colourless or very pale yellow well before” for “After”, “abrupt change in each line represented” for “identification,”, “corresponding MIC, which could be easily identified by the naked eyes.” for “MIC value was calculated based on dilution rates.”

[14] = system: E. coli; assay: as above; type: cell-based; details: Escherichia coli, WST-8, 37° C., 6 hours
Description: as §1, §2, §6
as §4, with “The colourless or very pale yellow well before” for “After”, “abrupt change in each line represented” for “identification,”, “corresponding MIC, which could be easily identified by the naked eyes.” for “MIC value was calculated based on dilution rates.”

Which “MIC, E-test (reference value)” value ([1]; S. capitis 901820-1) does the source give for `CN[C@H](CC(C)C)C(=O)N[C@H]1C(=O)N[C@@H](CC(N)=O)C(=O)N[C@H]2C(=O)N[C@H]3C(=O)N[C@H](C(=O)N[C@H](C(=O)O)c4cc(O)cc(O)c4-c4cc3ccc4O)[C@H](O)c3ccc(c(Cl)c3)Oc3cc2cc(c3O[C@@H]2O[C@H](CO)[C@@H](O)[C@H](O)[C@H]2O[C@H]2C[C@](C)(N)[C@H](O)[C@H](C)O2)Oc2ccc(cc2Cl)[C@H]1O` [Vancomycin] here?
The value was 1 µg/mL (≈ 0.69 µM).

And the “MIC, E-test (reference value)” value ([1]; S. capitis 902278-2)?
The value was 1 µg/mL (≈ 0.69 µM).

What about the “MIC, E-test (reference value)” value ([1]; S. capitis 902530-2) of the same compound?
The value was 0.5 µg/mL (≈ 0.345 µM).

And the “MIC, E-test (reference value)” value ([2]; S. aureus 900967)?
Its value is 1 µg/mL (≈ 0.69 µM).

And the “MIC, E-test (reference value)” value ([2]; S. aureus 901089)?
The value was 1 µg/mL (≈ 0.69 µM).

What about the “MIC, E-test (reference value)” value ([2]; S. aureus 901763) of the same compound?
The value was 0.5 µg/mL (≈ 0.345 µM).

What about the “MIC, E-test (reference value)” value ([2]; S. aureus 902126) of the same compound?
Its value is 0.75 µg/mL (≈ 0.518 µM).

What about the “MIC, E-test (reference value)” value ([2]; S. aureus 902154) of the same compound?
Its value is 0.5 µg/mL (≈ 0.345 µM).

What about the “MIC, E-test (reference value)” value ([2]; S. aureus 902395) of the same compound?
The value was 0.5 µg/mL (≈ 0.345 µM).

What about the “MIC, E-test (reference value)” value ([2]; S. aureus 903245) of the same compound?
The value was 0.75 µg/mL (≈ 0.518 µM).

What about the “MIC, E-test (reference value)” value ([2]; S. aureus 932674) of the same compound?
Its value is 0.75 µg/mL (≈ 0.518 µM).

What about the MIC ([3]; S. capitis 901820-1) of the same compound?
The MIC was 1 µg/mL (≈ 0.69 µM).

What about the MIC ([3]; S. capitis 902278-2) of the same compound?
Its MIC is 1 µg/mL (≈ 0.69 µM).

What about the MIC ([3]; S. capitis 902530-2) of the same compound?
The MIC was 0.55 µg/mL (≈ 0.38 µM).

What about the MIC ([4]; S. caprae 901820-2) of the same compound?
The MIC was 1.56 µg/mL (≈ 1.08 µM).

What about the MIC ([4]; S. caprae 902278-1) of the same compound?
The MIC was 0.195 µg/mL (≈ 0.135 µM).

What about the MIC ([4]; S. caprae 903211) of the same compound?
The MIC was 0.5 µg/mL (≈ 0.345 µM).

And the MIC ([4]; S. caprae 903522)?
Its MIC is 1.11 µg/mL (≈ 0.766 µM).

And the MIC ([5]; S. aureus 900967)?
The MIC was 1 µg/mL (≈ 0.69 µM).

And the MIC ([5]; S. aureus 901089)?
Its MIC is 1 µg/mL (≈ 0.69 µM).

What about the MIC ([5]; S. aureus 901763) of the same compound?
Its MIC is 0.5 µg/mL (≈ 0.345 µM).

What about the MIC ([5]; S. aureus 902126) of the same compound?
The MIC was 0.77 to 1.4 µg/mL (≈ 0.531 to 0.966 µM).

And the MIC ([5]; S. aureus 902154)?
Its MIC is 0.94 µg/mL (≈ 0.649 µM).

What about the MIC ([5]; S. aureus 902395) of the same compound?
The MIC was 0.5 µg/mL (≈ 0.345 µM).

What about the MIC ([5]; S. aureus 903245) of the same compound?
The MIC was 1.4 µg/mL (≈ 0.966 µM).

What about the MIC ([5]; S. aureus 932674) of the same compound?
Its MIC is 0.77 to 1.4 µg/mL (≈ 0.531 to 0.966 µM).

What about the MIC [6] of the same compound?
Its MIC is 1.56 µg/mL (≈ 1.08 µM).

And the “MIC, E-test (reference value)” value ([7]; S. caprae 901820-2)?
The value was 1.5 µg/mL (≈ 1.04 µM).

What about the “MIC, E-test (reference value)” value ([7]; S. caprae 902278-1) of the same compound?
The value was 0.19 µg/mL (≈ 0.131 µM).

And the “MIC, E-test (reference value)” value ([7]; S. caprae 903211)?
Its value is 0.5 µg/mL (≈ 0.345 µM).

What about the “MIC, E-test (reference value)” value ([7]; S. caprae 903522) of the same compound?
The value was 1 µg/mL (≈ 0.69 µM).

What about the “MIC, E-test (reference value)” value [8] of the same compound?
The value was 1.5 µg/mL (≈ 1.04 µM).

Which MIC [9] does the source give for `CC(C)(O/N=C(\C(=O)N[C@@H]1C(=O)N2C(C(=O)[O-])=C(C[n+]3ccccc3)CS[C@H]12)c1csc(N)n1)C(=O)O` [CTZ, Ceftazidime] here?
The MIC was 62.5 µg/mL (≈ 114 µM).

What about the MIC [10] of the same compound?
Its MIC is 62.5 to 125 µg/mL (≈ 114 to 229 µM).

What about the MIC [11] of the same compound?
Its MIC is 125 µg/mL (≈ 229 µM).

And the MIC [12]?
The MIC was 62.5 µg/mL (≈ 114 µM).

And the MIC [13]?
Its MIC is 62.5 µg/mL (≈ 114 µM).

What about the MIC [14] of the same compound?
Its MIC is 62.5 µg/mL (≈ 114 µM).

With `O=C(O)c1cn(C2CC2)c2cc(N3CCNCC3)c(F)cc2c1=O` [CIP, Ciprofloxacin] as the compound, how does the MIC [9] read?
Its MIC is 6.25 µg/mL (≈ 18.9 µM).

Which results are given for `C[C@H]1COc2c(N3CCN(C)CC3)c(F)cc3c(=O)c(C(=O)O)cn1c23` [LEV, Levofloxacin]?
MIC [9]: 50 µg/mL (≈ 138 µM); MIC [10]: 100 µg/mL (≈ 277 µM); MIC [11]: 50 µg/mL (≈ 138 µM); MIC [12]: 12.5 µg/mL (≈ 34.6 µM); MIC [13]: 100 µg/mL (≈ 277 µM); MIC [14]: 12.5 µg/mL (≈ 34.6 µM)
